Assay results published in the NIST ThermoML archive (doi:10.1021/je050540h).

Test: xn = mol fraction of the nth substance listed
Conditions: Liquid

CCC(C)O (configuration not stated) [butan-2-ol] + C1CCCC1
101 kPa, x2 = 0
Conditions	mass density [kg/m3]	speed of sound [m/s]	viscosity [mPa·s]
293.15 K	806.84	1230	3.623
298.15 K	802.72	1212	2.995
303.15 K	798.51	1194	2.493

C1CCCC1 [cyclopentane] + CCC(C)O
101 kPa
Conditions	mass density, 293.15 K [kg/m3]	mass density, 298.15 K [kg/m3]	mass density, 303.15 K [kg/m3]	speed of sound, 293.15 K [m/s]	speed of sound, 298.15 K [m/s]	speed of sound, 303.15 K [m/s]	viscosity, 293.15 K [mPa·s]	viscosity, 298.15 K [mPa·s]	viscosity, 303.15 K [mPa·s]
x1 = 0.0445	803.52	799.33	795.05	1225	1207	1188	3.152	2.621	2.194
x1 = 0.1036	799.5	795.2	790.81	1219	1200	1181	2.649	2.231	1.898
x1 = 0.1872	793.75	789.32	784.79	1212	1192	1172	2.121	1.811	1.56
x1 = 0.2856	787.01	782.42	777.74	1204	1183	1162	1.604	1.393	1.219
x1 = 0.3938	779.61	774.87	770.05	1197	1175	1153	1.194	1.054	0.94
x1 = 0.4873	773.26	768.43	763.52	1193	1170	1148	0.946	0.85	0.77
x1 = 0.6179	764.92	760.01	755.02	1191	1167	1144	0.692	0.636	0.588
x1 = 0.7034	759.79	754.84	749.82	1193	1169	1145	0.61	0.569	0.531
x1 = 0.8115	753.71	748.71	743.64	1200	1175	1151	0.517	0.485	0.455
x1 = 0.9113	748.61	743.57	738.46	1211	1186	1161	0.468	0.441	0.416
x1 = 0.9506	746.74	741.7	736.6	1218	1192	1167	0.451	0.426	0.403
x1 = 1	744.52	739.55	734.54	1232	1206	1180	0.438	0.416	0.394

C1CCCCC1 [cyclohexane] + CC(C)O
101 kPa
Conditions	mass density, 293.15 K [kg/m3]	mass density, 298.15 K [kg/m3]	mass density, 303.15 K [kg/m3]	speed of sound, 293.15 K [m/s]	speed of sound, 298.15 K [m/s]	speed of sound, 303.15 K [m/s]	viscosity, 293.15 K [mPa·s]	viscosity, 298.15 K [mPa·s]	viscosity, 303.15 K [mPa·s]
x1 = 0.0484	783.76	779.5	775.15	1160	1141	1123	2.184	1.883	1.633
x1 = 0.097	782.63	778.29	773.87	1163	1145	1126	1.988	1.722	1.504
x1 = 0.2006	780.51	776.05	771.5	1171	1152	1132	1.651	1.444	1.267
x1 = 0.3002	778.87	774.29	769.62	1180	1159	1139	1.427	1.26	1.112
x1 = 0.3977	777.63	772.95	768.19	1189	1167	1146	1.264	1.119	0.996
x1 = 0.507	776.69	771.92	767.09	1200	1178	1155	1.128	1.008	0.908
x1 = 0.6046	776.15	771.34	766.47	1211	1188	1165	1.025	0.926	0.838
x1 = 0.7058	775.92	771.11	766.23	1223	1200	1176	0.969	0.878	0.798
x1 = 0.823	776.23	771.42	766.56	1240	1216	1192	0.944	0.856	0.786
x1 = 0.9016	776.88	772.09	767.24	1254	1230	1206	0.95	0.87	0.801
x1 = 0.9521	777.52	772.74	767.92	1265	1240	1216	0.962	0.874	0.802
x1 = 1	778.62	773.92	769.19	1279	1254	1230	0.968	0.887	0.816

CCCC(C)O (configuration not stated) [pentan-2-ol] + C1CCCC1
101 kPa, x2 = 0
Conditions	mass density [kg/m3]	speed of sound [m/s]	viscosity [mPa·s]
293.15 K	809.04	1250	4.001
298.15 K	805.01	1232	3.273
303.15 K	800.9	1214	2.774

CC(C)O [propan-2-ol] + C1CCCC1
101 kPa, x2 = 0
Conditions	mass density [kg/m3]	speed of sound [m/s]	viscosity [mPa·s]
293.15 K	785.07	1156	2.382
298.15 K	780.87	1139	2.045
303.15 K	776.6	1121	1.763

C1CCCC1 [cyclopentane] + CCCC(C)O
101 kPa
Conditions	mass density, 293.15 K [kg/m3]	mass density, 298.15 K [kg/m3]	mass density, 303.15 K [kg/m3]	speed of sound, 293.15 K [m/s]	speed of sound, 298.15 K [m/s]	speed of sound, 303.15 K [m/s]	viscosity, 293.15 K [mPa·s]	viscosity, 298.15 K [mPa·s]	viscosity, 303.15 K [mPa·s]
x1 = 0.045	806.38	802.28	798.1	1246	1227	1208	3.573	2.948	2.459
x1 = 0.103	802.8	798.62	794.35	1239	1220	1200	3.005	2.509	2.118
x1 = 0.1878	797.38	793.07	788.68	1229	1209	1189	2.322	1.969	1.687
x1 = 0.2924	790.57	786.12	781.6	1218	1198	1177	1.723	1.491	1.304
x1 = 0.3906	783.89	779.33	774.71	1209	1188	1167	1.296	1.148	1.027
x1 = 0.5117	775.68	771.03	766.32	1201	1179	1157	0.957	0.87	0.794
x1 = 0.6242	768.16	763.43	758.63	1197	1175	1152	0.747	0.694	0.645
x1 = 0.721	761.81	756.98	752.09	1198	1175	1152	0.629	0.587	0.548
x1 = 0.8091	756.27	751.36	746.38	1202	1178	1154	0.552	0.516	0.487
x1 = 0.9094	749.82	744.82	739.76	1211	1186	1161	0.482	0.453	0.428
x1 = 0.9552	746.94	741.92	736.85	1218	1193	1167	0.455	0.43	0.407
x1 = 1	744.52	739.55	734.54	1232	1206	1180	0.439	0.416	0.394

C1CCCC1 [cyclopentane] + CC(C)O
101 kPa
Conditions	mass density, 293.15 K [kg/m3]	mass density, 298.15 K [kg/m3]	mass density, 303.15 K [kg/m3]	speed of sound, 293.15 K [m/s]	speed of sound, 298.15 K [m/s]	speed of sound, 303.15 K [m/s]	viscosity, 293.15 K [mPa·s]	viscosity, 298.15 K [mPa·s]	viscosity, 303.15 K [mPa·s]
x1 = 0.0486	782.53	778.24	773.87	1156	1138	1120	2.105	1.823	1.587
x1 = 0.091	779.96	775.6	771.15	1155	1136	1118	1.874	1.627	1.421
x1 = 0.2019	774.33	769.77	765.12	1156	1136	1116	1.425	1.254	1.11
x1 = 0.2958	769.22	764.52	759.73	1156	1135	1114	1.172	1.038	0.925
x1 = 0.3877	764.63	759.81	754.9	1158	1136	1114	0.954	0.856	0.77
x1 = 0.4823	760.38	755.45	750.44	1162	1139	1116	0.799	0.724	0.658
x1 = 0.5974	755.59	750.58	745.49	1168	1145	1121	0.641	0.588	0.542
x1 = 0.7206	750.97	745.92	740.79	1179	1154	1130	0.535	0.499	0.466
x1 = 0.8136	747.96	742.89	737.76	1190	1165	1140	0.484	0.454	0.427
x1 = 0.9219	745.39	740.33	735.2	1208	1183	1157	0.449	0.424	0.401
x1 = 0.9533	744.87	739.86	734.72	1215	1189	1164	0.443	0.419	0.398
x1 = 1	744.52	739.55	734.54	1232	1206	1180	0.438	0.416	0.394

C1CCCCC1 [cyclohexane] + CCC(C)O
101 kPa, x1 = 1
Conditions	mass density [kg/m3]	speed of sound [m/s]	viscosity [mPa·s]
293.15 K	778.62	1279	0.968
298.15 K	773.92	1254	0.887
303.15 K	769.19	1230	0.816

C1CCCCC1 [cyclohexane] + CCCC(C)O
x1 = 1
Conditions	mass density, 293.15 K [kg/m3]	mass density, 298.15 K [kg/m3]	mass density, 303.15 K [kg/m3]	speed of sound, 293.15 K [m/s]	speed of sound, 298.15 K [m/s]	speed of sound, 303.15 K [m/s]	viscosity, 293.15 K [mPa·s]	viscosity, 298.15 K [mPa·s]	viscosity, 303.15 K [mPa·s]
7 kPa	–	–	–	1279	1254	1230	–	–	–
101 kPa	778.62	773.92	769.19	–	–	–	0.968	0.887	0.816
